{
  "source": "paper PMC4491177",
  "about": "“Co-translational capturing of nascent ribosomal proteins by their dedicated chaperones” (Nature Communications, 2015)",
  "molecules": {"B1": {"name": "NTAP-Rrb1: N-terminally TAP-tagged Rrb1 (protein)", "chain": "MSKRSIEVNEEQDRVVSAKTESHSVPAIPASEEQDAPKNDLEEQLSDEFDSDGEIIEIDGDDEINDEDDLRKKQEEAETLVQKDQSEGNKEKIQELYLPHMSRPLGPDEVLEADPTVYEMLHNVNMPWPCLTLDVIPDTLGSERRNYPQSILLTTATQSSRKKENELMVLALSNLAKTLLKDDNEGEDDEEDDEDDVDPVIENENIPLRDTTNRLKVSPFAISNQEVLTATMSENGDVYIYNLAPQSKAFSTPGYQIPKSAKRPIHTVKNHGNVEGYGLDWSPLIKTGALLSGDCSGQIYFTQRHTSRWVTDKQPFTVSNNKSIEDIQWSRTESTVFATAGCDGYIRIWDTRSKKHKPAISVKASNTDVNVISWSDKIGYLLASGDDNGTWGVWDLRQFTPSNADAVQPVAQYDFHKGAITSIAFNPLDESIVAVGSEDNTVTLWDLSVEADDEEIKQQAAETKELQEIPPQLLFVHWQKEVKDVKWHKQIPGCLVSTGTDGLNVWKTISV", "modifications": "left off: NTAP (proteinA-TEV-CBP-Flag), N-terminal, kept"}, "B2": {"name": "Sqt1-TAP: C-terminally TAP-tagged Sqt1 (protein)", "chain": "MEPQEEFITTEEVEQEIVPTVEVEQDVPVDIEGENDDDDEMMNDDEEALEVDMSNNSLTYFDKHTDSVFAIGHHPNLPLVCTGGGDNLAHLWTSHSQPPKFAGTLTGYGESVISCSFTSEGGFLVTADMSGKVLVHMGQKGGAQWKLASQMQEVEEIVWLKTHPTIARTFAFGATDGSVWCYQINEQDGSLEQLMSGFVHQQDCSMGEFINTDKGENTLELVTCSLDSTIVAWNCFTGQQLFKITQAEIKGLEAPWISLSLAPETLTKGNSGVVACGSNNGLLAVINCNNGGAILHLSTVIELKPEQDELDASIESISWSSKFSLMAIGLVCGEILLYDTSAWRVRHKFVLEDSVTKLMFDNDDLFASCINGKVYQFNARTGQEKFVCVGHNMGVLDFILLHPVANTGTEQKRKVITAGDEGVSLVFEVPN", "modifications": "left off: TAP, C-terminal, kept"}},
  "key": {"[1]": {"test_system": "yeast strain YDK11-5A", "assay": "growth assay, yEGFP fusion expression and chaperone overexpression", "type": "cell-based, S. cerevisiae", "conditions": "chaperones from GAL1-10 promoter, SGal-Leu-Trp plates, 30 °C", "from_the_text": "Supplementary Figure 3 The N-terminal residues of Rpl10 and Rpl3 are sufficient and required for the interaction with Sqt1 and Rrb1, respectively. (a) The negative growth effect associated with L10-N- and L3-N-yEGFP expression is suppressed by overexpression of Sqt1 and Rrb1, respectively. The wild-type strain YDK11-5A was co-transformed with plasmids expressing yEGFP, Rpl10(1-20)-yEGFP or Rpl3(1-23)-yEGFP from the cognate RPL10 or RPL3 promoter, respectively, and empty vector or plasmids expressing Sqt1 or Rrb1 from the inducible GAL1-10 promoter. Transformants were first selected and then restreaked on SGal-Leu-Trp plates. Cells were spotted in 10-fold serial dilution steps onto SC-Leu-Trp (Glucose, Glu) and SGal-Leu-Trp (Galactose, Gal) plates, which were incubated for 3 d or 4 d at 30 °C, respectively. (b) The N-terminal residues of Rpl10 and Rpl3 are sufficient to mediate interaction with their chaperones in vivo. Tandem-affinity purification of C-terminally TAP-tagged Sqt1 (Sqt1-TAP, lanes 1 and 2) and N-terminally TAP-tagged Rrb1 (NTAP-Rrb1, […]\n(1 picture or pasted object on this page, not shown here)"}, "[2]": {"test_system": "NTAP-Rrb1", "assay": "co-translational capturing of yEGFP fusion by qRT-PCR, NTAP-Rrb1 purification", "type": "binding, S. cerevisiae", "conditions": "vs yEGFP control mRNA; expressed 10 min from copper-inducible promoter, then cycloheximide", "protocol": "Cells expressing Sqt1-TAP, NTAP-Rrb1, Syo1-FTpA and Yar1-TAP were grown at 30 °C in 400 ml YPD medium to an optical density (OD600) of 0.8, then cycloheximide was added to a final concentration of 0.2 mg ml^−1 and the flasks were kept, with intermittent vigorous shaking, on ice for 5 min. Cells were harvested by centrifugation for 5 min at 4 °C at 4,000 r.p.m., washed once with 20 ml of ice-cold lysis buffer (100 mM NaCl, 50 mM Tris-HCl (pH 7.5), 1.5 mM MgCl2, 0.1% NP-40 and 5% glycerol) containing 1 mM PMSF and 0.2 mg ml^−1 cycloheximide (lysis buffer-PC) and resuspended in 2 ml of lysis buffer-PC. Equal volumes of the resuspended cells were transferred into two 2.2 ml Eppendorf tubes, briefly centrifuged and resuspended in 600 μl of ice-cold lysis buffer-PC. To prevent RNA degradation, 4 μl of RiboLock (40 U μl^−1; Fermentas) was added. Then glass beads, corresponding to 1/3 of the lysis buffer volume, were added and the tubes were vigorously vortexed for 10 × 30 s with 30-s intervals on ice. Cell extracts were transferred to a new tube and, to maximize the yield, 400 μl of ice-cold lysis buffer-PC was used to rinse the glass beads. […]\nFor RNA isolation from the TEV eluate aliquot (∼450 μl), the TEV eluate was adjusted to 10 mM EDTA (pH 8.0) and 0.5% SDS. […] RNA concentrations (A260) were determined using a NanoDrop 1000 spectrophotometer (Thermo Scientific). […]"}, "[3]": {"test_system": "NTAP-Rrb1", "assay": "in vivo co-purification (TAP) with NTAP-Rrb1", "type": "binding, S. cerevisiae", "conditions": "CUP1 promoter, 30 min with 500 µM copper sulfate", "protocol": "(§1) Cells expressing Sqt1-TAP and NTAP-Rrb1 were grown at 30 °C in 4 l yeast extract peptone dextrose (YPD) medium to an optical density (OD600) of 2. Cell extracts were obtained by glass bead lysis with a Pulverisette (Fritsch). TAPs were performed in a buffer containing 50 mM Tris-HCl (pH 7.5), 100 mM NaCl, 1.5 mM MgCl2, 5% glycerol and 0.1% NP-40 as described. The EGTA eluates were precipitated by the addition of TCA to a final concentration of 10% and, after an acetone wash, dissolved in 80 μl of 3 × SDS sample buffer. […]\n(§2) lanes 3 and 4) from cells where expression of the yEGFP control protein (lanes 1 and 3) or the Rpl10(1-20)-yEGFP (lane 2) and Rpl3(1-23)-yEGFP (lane 4) fusion proteins has been induced from the CUP1 promoter for 30 min with 500 µM copper sulfate. Final EGTA eluates were analyzed by SDS-PAGE and Coomassie staining (top) or by Western blotting using anti-CBP, anti-Flag, anti-GFP, anti-Rpl10, and anti-Rpl3 antibodies (bottom). Total cell extracts (input) were analyzed by Western blotting using anti-proteinA, anti-GFP, and anti-Adh1 (loading control) antibodies. […]\n(§3) Final EGTA eluates were analyzed by SDS-PAGE and Coomassie staining (top) or by Western blotting using anti-CBP, anti-Flag, anti-HA, anti-Rpl10, and anti-Rpl3 antibodies (bottom). […] Total cell extracts (input) were analyzed by Western blotting using anti-proteinA, anti-HA, and anti-Adh1 (loading control) antibodies. […]"}, "[4]": {"test_system": "Sqt1-TAP", "assay": "co-translational capturing of yEGFP fusion by qRT-PCR, Sqt1-TAP purification", "type": "binding, S. cerevisiae", "conditions": "vs yEGFP control mRNA; expressed 10 min from copper-inducible promoter, then cycloheximide", "protocol": "Figure 7 Chaperones are recruited to nascent ribosomal proteins. (a) The chaperone proteins were affinity purified (IgG-Sepharose pull-down) from extracts of cycloheximide-treated cells and the associated RNA was isolated from the TEV eluates. Each of the four chaperone purifications (NTAP-Rrb1, Syo1-FTpA, Sqt1-TAP, and Yar1-TAP) was assessed for their content of the four ribosomal protein (RP) mRNAs (RPL3, RPL5, RPL10 and RPS3) by real-time qRT–PCR. The data from one representative experiment are expressed as the relative enrichment of the specifically co-purified RP mRNA in each of the four chaperone purifications (see Methods section for details). For each cDNA, real-time qPCRs were performed in triplicates. A highly reproducible data set was obtained in an independent series of chaperone purifications. (b) The N-terminal residues of Rpl10 are sufficient to target Sqt1 to the nascent Rpl10(1–20)-yEGFP fusion protein. […] The Sqt1-TAP purifications were assessed for their content of the RPL3, RPL10 and yEGFP (GFP) mRNAs by real-time qRT–PCR. The data from one representative experiment are expressed as the fold enrichment relative to the RPL3 mRNA. […]"}, "[5]": {"test_system": "Sqt1-TAP", "assay": "in vivo co-purification (TAP) with Sqt1-TAP", "type": "binding, S. cerevisiae", "conditions": "CUP1 promoter, 30 min with 500 µM copper sulfate", "protocol": "as §1, §2, §3"}, "[6]": {"test_system": "Rpl3", "assay": "tandem-affinity purification of NTAP-Rrb1", "type": "binding, S. cerevisiae", "conditions": "TAP from yeast cell lysate, EGTA eluate, Coomassie", "protocol": "(§4) Cells expressing Sqt1-TAP and NTAP-Rrb1 were grown at 30 °C in 4 l yeast extract peptone dextrose (YPD) medium to an optical density (OD600) of 2. Cell extracts were obtained by glass bead lysis with a Pulverisette (Fritsch). TAPs were performed in a buffer containing 50 mM Tris-HCl (pH 7.5), 100 mM NaCl, 1.5 mM MgCl2, 5% glycerol and 0.1% NP-40 as described. The EGTA eluates were precipitated by the addition of TCA to a final concentration of 10% and, after an acetone wash, dissolved in 80 μl of 3 × SDS sample buffer. Protein samples were separated on NuPAGE 4–12% Bis-Tris 12-well gels (Novex), run in 1 × MES SDS running buffer, and subsequently stained with Brilliant Blue G Colloidal Coomassie (Sigma)."}, "[7]": {"test_system": "Rpl10", "assay": "tandem-affinity purification of Sqt1-TAP", "type": "binding, S. cerevisiae", "conditions": "TAP from yeast cell lysate, EGTA eluate, Coomassie", "protocol": "as §4"}},
  "note": "Ends that are not written are not given here.",
  "data": [
    {"molecule": "L3-N (amino acids 1–23) yEGFP (MSHRKYEAPRHGHLGFLPRKRAA; also: fused to yEGFP, end not given here; UniProt P14126 1-23, looked up, fragment)", "values": [
      {"measurement": "growth defect associated with expression, upon overexpression of Sqt1 or Rrb1, respectively", "setting": "[1]", "value": "efficiently suppressed"},
      {"measurement": "enrichment of fusion mRNA in NTAP-Rrb1 purification", "setting": "[2]", "value": "clearly enriched compared with the yEGFP control mRNA"},
      {"measurement": "in vivo co-purification with the NTAP-Rrb1 bait", "setting": "[3]", "value": "specifically co-purified in vivo"}
    ]},
    {"molecule": "L10-N (amino acids 1–20) yEGFP (MARRPARCYRYQKNKPYPKS; also: fused to yEGFP; UniProt P41805 1-20, looked up, fragment)", "values": [
      {"measurement": "growth defect associated with expression, upon overexpression of Sqt1 or Rrb1, respectively", "setting": "[1]", "value": "efficiently suppressed"},
      {"measurement": "enrichment of fusion mRNA in Sqt1-TAP purification", "setting": "[4]", "value": "clearly enriched compared with the yEGFP control mRNA"},
      {"measurement": "in vivo co-purification with the Sqt1-TAP bait", "setting": "[5]", "value": "specifically co-purified in vivo"}
    ]},
    {"molecule": "B1", "values": [
      {"measurement": "co-purification of Rpl3", "setting": "[6]", "value": "robust co-purification of Rpl3"}
    ]},
    {"molecule": "B2", "values": [
      {"measurement": "co-enrichment of Rpl10", "setting": "[7]", "value": "good co-enrichment of Rpl10"}
    ]}
  ]
}
